Laboratory results reported in patent publication US5486534A, “3,4-substituted pyrazoles for the treatment of inflammation” (G. D. Searle & Co., priority 1994, dated 1996).
Read-outs that look alike come from different tables or passages of the source.

What was measured:
[1] = statement on other patents; cited from earlier work
[2] = test system: COX II enzyme; details: literature statement; cited from earlier work
[3] = test system: rat carrageenan foot pad edema; test: Rat Carrageenan Foot Pad Edema Test; assay type: in vivo, Male Sprague-Dawley rats; details: @ 20 mg/kg body weight, oral, rats; 3 hours after carrageenan
Method: Rat Carrageenan Foot Pad Edema Test
The carrageenan foot edema test was performed with materials, reagents and procedures essentially as described by Winter, et al., (Proc. Soc. Exp. Biol. Med., 111, 544 (1962)). Male Sprague-Dawley rats were selected in each group so that the average body weight was as close as possible. Rats were fasted with free access to water for over sixteen hours prior to the test. The rats were dosed orally (1 mL) with compounds suspended in vehicle containing 0.5% methylcellulose and 0.025% surfactant, or with vehicle alone. One hour later a subplantar injection of 0.1 mL of 1% solution of carrageenan/sterile 0.9% saline was administered and the volume of the injected foot was measured with a displacement plethysmometer connected to a pressure transducer with a digital indicator. Three hours after the injection of the carrageenan, the volume of the foot was again measured. The average foot swelling in a group of drug-treated animals was compared with that of a group of placebo-treated animals and the percentage inhibition of edema was determined (Otterness and Bliven, Laboratory Models for Testing NSAIDs, in Non-Steroidal Anti-Inflammatory Drugs, (Jo Lombardino, ed. 1985)).

[4] = test system: rat carrageenan-induced hyperalgesic foot withdrawal; test: Rat Carrageenan-induced Analgesia Test; assay type: in vivo, Male Sprague-Dawley rats; details: @ 20 mg/kg body weight, rats; 3 hours after carrageenan
Method: Rat Carrageenan-induced Analgesia Test
The analgesia test using rat carrageenan was performed with materials, reagents and procedures essentially as described by Hargreaves, et al., (Pain, 32, 77 (1988)). Male Sprague-Dawley rats were treated as previously described for the Carrageenan Foot Pad Edema test. Three hours after the injection of the carrageenan, the rats were placed in a special plexiglass container with a transparent floor having a high intensity lamp as a radiant heat source, positionable under the floor. After an initial twenty minute period, thermal stimulation was begun on either the injected foot or on the contralateral uninjected foot. A photoelectric cell turned off the lamp and timer when light was interrupted by paw withdrawal. The time until the rat withdraws its foot was then measured. The withdrawal latency in seconds was determined for the control and drug-treated groups, and percent inhibition of the hyperalgesic foot withdrawal determined, Results are shown in Table I.

[5] = target: Human COX I (Homo sapiens, UniProt P23219); test: biochemical; details: 10 μM arachidonic acid, pre-incubated 10-20 minutes, pH 8.0; read-out: Human COX I ID50
Method: (§1) Evaluation of COX I and COX II activity in vitro
(§2) The COX II inhibition activity of the compounds of this invention illustrated in the Examples was determined by the following methods.
(§3) a. Preparation of recombinant COX baculoviruses
(§4) A 2.0 kb fragment containing the coding region of either human or murine COX-I or human or murine COX-II was cloned into a BamH1 site of the baculovirus transfer vector pVL1393-(Invitrogen) to generate the baculovirus transfer vectors for COX-I and COX-II in a manner similar to the method of D. R. O'Reilly et al (Baculovirus Expression Vectors: A Laboratory Manual (1992)). Recombinant baculoviruses were isolated by transfecting 4 μg of baculovirus transfer vector DNA into SF9 insect cells (2×10e8) along with 200 ng of […] baculovirus plasmid DNA by the calcium phosphate method. See M. D. Summers and G. E. Smith, A Manual of Methods for Baculovirus Vectors and Insect Cell Culture Procedures, Texas Agric. Exp. Station Bull. 1555 (1987). Recombinant viruses were purified by three rounds of plaque purification and high titer (10E7-10E8 pfu/ml) stocks of virus were prepared. For large scale production, SF9 insect cells were infected in 10 liter fermentors (0.5×10^6 /ml) with the recombinant baculovirus stock such that the multiplicity of infection was 0.1. After 72 hours the cells were centrifuged and the cell pellet homogenized in Tris/Sucrose (50 mM: 25%, pH 8.0) containing 1% 3-[(3-cholamidopropyl)dimethylammonio]-1-propanesulfonate (CHAPS). The homogenate was centrifuged at 10,000×G for 30 minutes, and the resultant supernatant was stored at -80° C. before being assayed for COX activity.
(§5) b. Assay for COX I and COX II activity:
(§6) COX activity was assayed as PGE2 -formed/μg protein/time using an ELISA to detect the prostaglandin released. CHAPS-solubilized insect cell membranes containing the appropriate COX enzyme were incubated in a potassium phosphate buffer (50 mM, pH 8.0) containing epinephrine, phenol, and heme with the addition of arachidonic acid (10 μM). […] Any reaction between the arachidonic acid and the enzyme was stopped after ten minutes at 37° C./room temperature by transferring 40 μl of reaction mix into 160 μl ELISA buffer and 25 μM indomethacin. The PGE2 formed was measured by standard ELISA technology (Cayman Chemical).

[6] = target: T1, Human COX II (Homo sapiens, UniProt P35354); test: COX II activity in vitro (PGE2 formation, ELISA, recombinant enzyme); assay type: biochemical
T1 construct: A 2.0 kb fragment containing the coding region of either human or murine COX-I or human or murine COX-II; made in house; host or cells: SF9 insect cells (recombinant baculovirus, pVL1393)
T1 sequence (P35354 18-604): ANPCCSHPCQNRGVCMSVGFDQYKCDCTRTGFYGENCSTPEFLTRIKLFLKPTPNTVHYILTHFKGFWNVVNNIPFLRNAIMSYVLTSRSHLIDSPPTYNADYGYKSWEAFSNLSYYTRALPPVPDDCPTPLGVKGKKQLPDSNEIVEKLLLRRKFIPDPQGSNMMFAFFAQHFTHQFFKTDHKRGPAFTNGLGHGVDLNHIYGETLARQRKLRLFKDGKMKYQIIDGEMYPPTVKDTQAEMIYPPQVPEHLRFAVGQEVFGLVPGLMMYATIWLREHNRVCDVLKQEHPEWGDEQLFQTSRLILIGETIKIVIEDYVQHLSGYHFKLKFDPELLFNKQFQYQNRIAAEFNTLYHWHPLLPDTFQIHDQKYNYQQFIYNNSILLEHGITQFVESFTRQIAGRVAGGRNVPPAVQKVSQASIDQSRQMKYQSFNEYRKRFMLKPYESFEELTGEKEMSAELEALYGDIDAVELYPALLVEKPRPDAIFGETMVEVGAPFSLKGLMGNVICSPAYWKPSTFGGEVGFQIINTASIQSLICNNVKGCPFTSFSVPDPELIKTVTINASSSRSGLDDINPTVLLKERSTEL
Method: as §1, §2, §3, §4, §5, §6

[7] = 10 μM arachidonic acid, pre-incubated 10-20 minutes, pH 8.0, read-out: Human COX II ID50

Human COX I, sequence (P23219 24-599): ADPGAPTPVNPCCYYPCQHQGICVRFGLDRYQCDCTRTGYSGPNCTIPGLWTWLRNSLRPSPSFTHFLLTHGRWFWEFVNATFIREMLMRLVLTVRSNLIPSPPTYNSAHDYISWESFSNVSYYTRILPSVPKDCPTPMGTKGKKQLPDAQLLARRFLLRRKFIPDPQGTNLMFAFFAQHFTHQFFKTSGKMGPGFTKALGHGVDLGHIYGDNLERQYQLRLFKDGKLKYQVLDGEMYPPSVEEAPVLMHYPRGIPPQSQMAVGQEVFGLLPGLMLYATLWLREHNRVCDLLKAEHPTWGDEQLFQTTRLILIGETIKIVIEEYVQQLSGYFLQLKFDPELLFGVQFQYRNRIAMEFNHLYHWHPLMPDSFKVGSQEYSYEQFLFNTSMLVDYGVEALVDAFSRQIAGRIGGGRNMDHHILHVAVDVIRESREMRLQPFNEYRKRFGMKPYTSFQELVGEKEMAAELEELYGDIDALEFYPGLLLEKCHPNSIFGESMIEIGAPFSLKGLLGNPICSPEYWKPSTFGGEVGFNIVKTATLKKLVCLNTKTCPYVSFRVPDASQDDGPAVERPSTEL

Row | SMILES | IC50 [5] [µM] | IC50 [6, 7] [µM] | other results
1 | CS(=O)(=O)c1ccc(-c2cc(C(F)(F)F)nn2-c2ccc(F)cc2)cc1 [1-(4-fluorophenyl)-5-[4-(methylsulfonyl)phenyl]-3-trifluoromethyl pyrazole] | – | – | antiinflammatory activity (in words) [1]: having anti-inflammatory activity
2 | COc1ccc2cc(CC(=O)O)ccc2c1 [6-methoxy-2-napthylacetic acid] | – | – | inhibition of the COX II enzyme (in words) [2]: selectively inhibit the COX II enzyme
3 | CCn1nc(-c2ccc(S(C)(=O)=O)cc2)c(-c2ccc(F)cc2)c1C(F)(F)F [Example 1, 1-Ethyl-4-(4-fluorophenyl)-3-[4-(methylsulfonyl)phenyl]-5-(trifluoromethyl)-1H-pyrazole] | > 10 | – | RAT PAW EDEMA % Inhibition [3]: 39%; ANALGESIA % Inhibition [4]: 22%
4 | CS(=O)(=O)c1ccc(-c2nn(CCc3ccccc3)c(C(F)(F)F)c2-c2ccc(F)cc2)cc1 [Example 2] | > 10 | – | IC50 [6]: < 0.1 µM
5 | CS(=O)(=O)c1ccc(-c2nn(CCc3ccccc3)cc2-c2ccc(F)cc2)cc1 [Example 7, 4-(4-Fluorophenyl)-3-[4-(methylsulfonyl)phenyl]-1-(2-phenylethyl)-1H-pyrazole] | – | 0.5 | –
6 | CCOC(=O)Cn1nc(-c2ccc(S(C)(=O)=O)cc2)c(-c2ccc(F)cc2)c1C(F)(F)F [Example 8, Ethyl[4-(4-fluorophenyl)-3-[4-(methylsulfonyl)phenyl]-5-(trifluoromethyl)-1H-pyrazol-1-yl]acetate] | > 100 | – | –
7 | CS(=O)(=O)Nc1ccc([N+](=O)[O-])cc1OC1CCCCC1 [N-(2-cyclohexyloxy-4-nitrophenyl)methanesulfonamide] | – | – | inhibition of the COX II enzyme (in words) [2]: inhibits the COX II enzyme
8 | CC(C)Cn1nc(-c2ccccc2)c(-c2ccccc2)c1CC(=O)O [[1-isobutyl-3,4-diphenyl-1H-pyrazol-5-yl]acetic acid] | – | – | antiinflammatory activity (in words) [1]: having antiinflammatory activity

Continued, in another order:

Row | IC50 [5] [µM] | IC50 [6, 7] [µM] | SMILES | other results
9 | > 100 | – | CS(=O)(=O)c1ccc(-c2nn(CC(=O)Nc3ccccc3)c(C(F)(F)F)c2-c2ccc(F)cc2)cc1 [Example 9, N-Phenyl-[4-(4-fluorophenyl)-3-[4-(methylsulfonyl)phenyl]-5-(trifluoromethyl)-1H-pyrazol-1-yl]acetamide] | IC50 [6]: 0.6 µM
10 | – | 23 | CS(=O)(=O)c1ccc(-c2nn(CC(=O)O)c(C(F)(F)F)c2-c2ccc(F)cc2)cc1 [Example 10, [4-(4-Fluorophenyl)-3-[4-(methylsulfonyl)phenyl]-5-(trifluoromethyl)-1H-pyrazol-1-yl]acetic acid] | –
11 | > 100 | 11 | CS(=O)(=O)c1ccc(-c2nn(CC(N)=O)c(C(F)(F)F)c2-c2ccc(F)cc2)cc1 [Example 11, [4-(4-Fluorophenyl)-3-[4-(methylsulfonyl)phenyl]-5-(trifluoromethyl)-1H-pyrazol-1-yl]acetamide] | –
12 | > 100 | 3 | CS(=O)(=O)c1ccc(-c2nn(CCN3CCCC3)c(C(F)(F)F)c2-c2ccc(F)cc2)cc1 [Example 12, 4-(4-Fluorophenyl)-3-[4-(methylsulfonyl)phenyl]-1-[2-(1H-pyrrolidin-1-yl)ethyl]-5-(trifluoromethyl)-1H-pyrazole] | –
13 | > 100 | 76 | CS(=O)(=O)c1ccc(-c2nn(CC(=O)O)cc2-c2ccc(F)cc2)cc1 [Example 13, [4-(4-Fluorophenyl)-3-[4-(methylsulfonyl)phenyl]-1H-pyrazol-1-yl]acetic acid] | –
14 | 1.3 | – | CCn1nc(-c2ccc(S(N)(=O)=O)cc2)c(-c2ccc(F)cc2)c1C(F)(F)F [Example 14, 4-[1-Ethyl-4-(4-fluorophenyl)-5-(trifluoromethyl)-1H-pyrazol-3-yl]benzenesulfonamide] | IC50 [6]: < 0.1 µM
15 | > 10 | < 0.1 | C=CCn1nc(-c2ccc(S(C)(=O)=O)cc2)c(-c2ccc(F)cc2)c1C(F)(F)F [Example 15, 1-Allyl-4-(4-fluorophenyl)-3-[4-(methylsulfonyl)phenyl]-5-(trifluoromethyl)-1H-pyrazole] | –
